The structures appear in SMILES notation. Several values for one entry are separate records, joined by “and”; a condition that tells them apart may be missing. Identical values can stand only once. Some results are limits rather than exact numbers.

Data set [1] in a line: Pharmacokinetics study in Sprague–Dawley rats. It is filed as in vivo. The settings on record: rat, 0.5 mg/kg iv.
The test system of data set [2] is ROS1. The experiment in a line: ROS1 degradation in Ba/F3 cells (WES immunoblotting). It is filed as cell-based. The settings on record: maximal degradation of ROS1 in Ba/F3 cells. The method in brief:
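ROS1 and phospho-ROS1 (Tyr2274/2334) in Ba/F3 lysates quantified by capillary immunoassay (WES) with chemiluminescent detection, duplicate experiments. Levels expressed as AUC of the chemiluminescence peak.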

A further data set concerns the target ERBB4/HER4 (Homo sapiens, UniProt Q15303). Put plainly: Kinase assay. It is filed as biochemical. The settings on record: average of duplicate measurements.
Another data set addresses ROS1 (G2032R) (Homo sapiens, UniProt P08922, G2032R). The experiment in a line: Kinase assay. It counts as biochemical. The settings on record: average of duplicate measurements.
The target in the next data set is CHEK1 (Homo sapiens, UniProt O14757). Put plainly: Kinase assay. It is filed as biochemical. The settings on record: average of duplicate measurements.
The target of a further data set is FAK/PTK2 (Homo sapiens, UniProt Q05397). Put plainly: Kinase assay. It is filed as biochemical. The settings on record: average of duplicate measurements.
A further data set deals with CAMK2D (Homo sapiens, UniProt Q13557). Put plainly: Kinase assay. It is filed as biochemical. The settings on record: average of duplicate measurements.
The next data set relates to H2228 cells. Put plainly: Whole cell proteomic analysis. It is filed as cell-based, human. The settings on record: 100 nM, 24 h. The method, then: To minimize the effect of signaling blockade on proteomic changes, we decided that a more accurate quantitative determination of proteomic alterations would be to compare degrader-treated to inhibitor-treated.
Cell pellets were dissolved in 1 mL of RIPA buffer, 10 μL of phosphatase inhibitor, and 10 μL of protease inhibitor. Proteins were extracted and concentration was determined by the BCA assay. The protein samples were digested with sequencing grade modified trypsin (Promega Corp; Madison, WI) according to the manufacturer’s instructions. The peptides were labeled using the TMT Isobaric Mass Tagging kit (Thermo Fisher Scientific; # 90,060–90,061; Waltham, MA). The labeled peptide aliquots were then pooled together for subsequent fractionation and analysis. The TMT-labeled peptide mixtures were separated by an automated Easy-nLC1000 system coupled with a Q-Exactive spectrometer (Thermo Finnigan, Waltham, MA). The identification of proteins was performed using Proteome Discoverer software v2.3 (Thermo Fisher Scientific; Waltham, MA) and Mascot v2.6 (Matrix Science, Boston, MA), based on “Uniprot Human” database. The proteins that were identified on the basis of at least one unique peptide were included in the data. The ratios of TMT reporter ion abundance in 9o-treated cells and inhibitor-treated cells were used to calculate protein relative abundance.

Data set [3] concerns Ba/F3 CD74-ROS1 WT xenograft tumors. Put plainly: Mouse efficacy study, Ba/F3 CD74-ROS1 xenograft. It is filed as in vivo. The settings on record: NOD/SCID mice. As for the experimental part: (§1) All the procedures related to animal handling, care, and treatment in this study were performed according to guidelines approved by the Institutional Animal Care and Use Committee (IACUC) of Xavier University of Louisiana following the guidance of the AAALAC. Ba/F3-ROS1 and Ba/F3-ROS1-G2032R cells were maintained in RPMI 1640 medium supplemented with 10% fetal bovine serum. The cells growing in an exponential growth phase were harvested and counted for tumor inoculation. Female NOD/SCID mice 6–8 weeks of age were allowed to adapt to laboratory conditions for 10 days prior to dosing and were allowed food and water ad libitum. Each mouse was inoculated subcutaneously in the right flank with Ba/F3 CD74-ROS1 or Ba/F3 SL34A2-ROS1 G2032R cells (1 × 10^6) in 0.2 mL of PBS mixed with Matrigel (50:50) for tumor development.

In another data set the target is ROS1 (G2101C) (Homo sapiens, UniProt P08922, G2101C). Put plainly: Kinase assay. It counts as biochemical. The settings on record: average of duplicate measurements.
Data set [4] relates to Ba/F3 SLC34A2-ROS1 G2032R xenograft tumors. The experiment in a line: Mouse efficacy study, Ba/F3 SLC34A2-ROS1 G2032R xenograft. The settings on record: NOD/SCID mice. It counts as in vivo. As for the experimental part:
as §1

The target of the next data set is ALK (Homo sapiens, UniProt Q9UM73). The experiment in a line: Kinase assay. It is filed as biochemical. The settings on record: average of duplicate measurements.
Data set [5] in a line: Metabolic stability in rat microsomes. It counts as in vitro ADME. The settings on record: rat, pooled rat microsomes, pH 7.4, 250 nM compound, NADPH, 37 °C.
A further data set addresses INSRR (Homo sapiens, UniProt P14616). The experiment in a line: Kinase assay. It counts as biochemical. The settings on record: average of duplicate measurements.
For the next data set, the target named is ROS1 (L2086F) (Homo sapiens, UniProt P08922, L2086F). Put plainly: Kinase assay. The settings on record: average of duplicate measurements. It is filed as biochemical.
In data set [6] the target is ROS1 (Homo sapiens, UniProt P08922). The experiment in a line: Kinase assay. It counts as biochemical. The settings on record: average of duplicate measurements.
In the next data set the target is FES (Homo sapiens, UniProt P07332). Put plainly: Kinase assay. The settings on record: average of duplicate measurements. It is filed as biochemical.
FES, sequence (P07332 whole entry, species assumed): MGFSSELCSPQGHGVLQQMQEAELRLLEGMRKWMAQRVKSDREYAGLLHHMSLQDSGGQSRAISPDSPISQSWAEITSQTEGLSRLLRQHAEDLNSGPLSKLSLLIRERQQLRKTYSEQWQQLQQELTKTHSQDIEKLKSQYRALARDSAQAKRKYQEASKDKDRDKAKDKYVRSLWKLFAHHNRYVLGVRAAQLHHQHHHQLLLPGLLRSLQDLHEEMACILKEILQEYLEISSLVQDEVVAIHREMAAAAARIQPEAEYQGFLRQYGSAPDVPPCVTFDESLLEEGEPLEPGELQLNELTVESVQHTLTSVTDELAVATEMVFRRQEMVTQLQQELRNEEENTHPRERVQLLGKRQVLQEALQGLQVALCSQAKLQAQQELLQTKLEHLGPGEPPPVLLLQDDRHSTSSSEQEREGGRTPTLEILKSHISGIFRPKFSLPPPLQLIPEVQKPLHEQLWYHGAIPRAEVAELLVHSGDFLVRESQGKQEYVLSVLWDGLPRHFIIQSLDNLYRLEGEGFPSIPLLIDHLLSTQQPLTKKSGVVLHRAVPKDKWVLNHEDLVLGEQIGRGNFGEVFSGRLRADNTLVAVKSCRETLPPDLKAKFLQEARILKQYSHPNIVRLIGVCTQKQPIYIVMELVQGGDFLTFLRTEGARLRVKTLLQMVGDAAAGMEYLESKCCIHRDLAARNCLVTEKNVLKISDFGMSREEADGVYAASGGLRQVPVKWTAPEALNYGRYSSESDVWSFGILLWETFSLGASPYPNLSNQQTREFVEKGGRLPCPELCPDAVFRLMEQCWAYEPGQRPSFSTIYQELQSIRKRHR

ROS1 (G2101C), sequence (P08922 28-2347 G2101C): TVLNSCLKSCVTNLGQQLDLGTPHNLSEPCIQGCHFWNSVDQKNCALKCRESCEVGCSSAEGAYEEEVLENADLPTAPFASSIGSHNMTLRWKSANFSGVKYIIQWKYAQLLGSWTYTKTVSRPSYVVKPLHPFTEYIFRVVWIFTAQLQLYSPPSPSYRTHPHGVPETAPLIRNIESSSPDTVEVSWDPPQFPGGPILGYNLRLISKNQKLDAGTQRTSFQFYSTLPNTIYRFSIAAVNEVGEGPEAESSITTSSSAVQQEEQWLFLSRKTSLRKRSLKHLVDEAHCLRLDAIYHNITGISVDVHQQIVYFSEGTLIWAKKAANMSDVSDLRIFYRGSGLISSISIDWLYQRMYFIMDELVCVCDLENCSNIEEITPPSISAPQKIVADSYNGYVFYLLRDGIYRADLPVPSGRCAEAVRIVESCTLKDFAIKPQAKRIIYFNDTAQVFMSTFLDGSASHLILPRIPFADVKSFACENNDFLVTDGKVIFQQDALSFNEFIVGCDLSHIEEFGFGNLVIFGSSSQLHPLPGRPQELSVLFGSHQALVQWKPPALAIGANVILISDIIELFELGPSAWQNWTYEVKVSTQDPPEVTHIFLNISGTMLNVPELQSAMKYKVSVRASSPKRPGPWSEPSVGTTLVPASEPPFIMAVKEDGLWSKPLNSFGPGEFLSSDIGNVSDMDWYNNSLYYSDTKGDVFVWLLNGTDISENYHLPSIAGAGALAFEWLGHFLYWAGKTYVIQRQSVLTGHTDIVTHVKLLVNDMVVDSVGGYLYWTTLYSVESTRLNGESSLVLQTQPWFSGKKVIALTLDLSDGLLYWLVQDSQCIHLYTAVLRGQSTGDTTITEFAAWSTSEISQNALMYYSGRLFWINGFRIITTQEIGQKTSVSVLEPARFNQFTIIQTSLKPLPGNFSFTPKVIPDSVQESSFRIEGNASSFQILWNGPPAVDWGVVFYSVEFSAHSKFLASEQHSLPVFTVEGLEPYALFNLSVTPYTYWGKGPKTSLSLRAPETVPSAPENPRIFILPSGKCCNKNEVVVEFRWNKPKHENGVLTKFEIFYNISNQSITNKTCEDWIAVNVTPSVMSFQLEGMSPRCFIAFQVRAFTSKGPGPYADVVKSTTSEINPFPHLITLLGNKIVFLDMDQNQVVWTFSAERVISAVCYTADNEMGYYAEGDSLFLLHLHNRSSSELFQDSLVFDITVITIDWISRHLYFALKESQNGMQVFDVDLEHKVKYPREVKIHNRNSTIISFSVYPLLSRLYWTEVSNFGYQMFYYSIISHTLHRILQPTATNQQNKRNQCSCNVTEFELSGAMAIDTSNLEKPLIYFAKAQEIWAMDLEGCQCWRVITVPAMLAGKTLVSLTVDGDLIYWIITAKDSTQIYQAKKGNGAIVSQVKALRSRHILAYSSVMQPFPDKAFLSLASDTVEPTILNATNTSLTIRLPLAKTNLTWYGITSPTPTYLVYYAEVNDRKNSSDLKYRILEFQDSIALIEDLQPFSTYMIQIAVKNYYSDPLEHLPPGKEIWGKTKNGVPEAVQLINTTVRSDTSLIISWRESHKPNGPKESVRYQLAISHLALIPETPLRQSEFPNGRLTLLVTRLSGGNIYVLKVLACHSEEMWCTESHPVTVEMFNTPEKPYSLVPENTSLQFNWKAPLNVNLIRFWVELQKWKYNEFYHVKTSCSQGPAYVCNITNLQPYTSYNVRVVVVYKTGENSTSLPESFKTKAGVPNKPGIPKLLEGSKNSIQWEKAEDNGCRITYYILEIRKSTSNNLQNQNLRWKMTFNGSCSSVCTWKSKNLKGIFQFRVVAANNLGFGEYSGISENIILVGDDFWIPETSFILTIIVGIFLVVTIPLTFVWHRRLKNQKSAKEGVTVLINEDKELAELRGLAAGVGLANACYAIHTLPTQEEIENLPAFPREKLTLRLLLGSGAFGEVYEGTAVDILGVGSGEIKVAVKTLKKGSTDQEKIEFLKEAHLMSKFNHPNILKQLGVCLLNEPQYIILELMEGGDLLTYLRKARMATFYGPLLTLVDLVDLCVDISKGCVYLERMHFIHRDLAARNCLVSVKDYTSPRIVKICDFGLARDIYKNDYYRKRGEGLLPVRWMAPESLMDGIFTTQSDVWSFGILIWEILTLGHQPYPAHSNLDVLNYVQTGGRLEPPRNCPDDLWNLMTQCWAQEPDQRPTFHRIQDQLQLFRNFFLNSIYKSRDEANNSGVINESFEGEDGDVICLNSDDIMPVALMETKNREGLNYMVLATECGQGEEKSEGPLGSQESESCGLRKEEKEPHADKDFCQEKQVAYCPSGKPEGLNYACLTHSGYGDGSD
ROS1 (L2086F), sequence (P08922 28-2347 L2086F): as the sequence (P08922 28-2347 G2101C) above, with L2059F, C2074G counted along it
ERBB4/HER4, sequence (Q15303 26-1308): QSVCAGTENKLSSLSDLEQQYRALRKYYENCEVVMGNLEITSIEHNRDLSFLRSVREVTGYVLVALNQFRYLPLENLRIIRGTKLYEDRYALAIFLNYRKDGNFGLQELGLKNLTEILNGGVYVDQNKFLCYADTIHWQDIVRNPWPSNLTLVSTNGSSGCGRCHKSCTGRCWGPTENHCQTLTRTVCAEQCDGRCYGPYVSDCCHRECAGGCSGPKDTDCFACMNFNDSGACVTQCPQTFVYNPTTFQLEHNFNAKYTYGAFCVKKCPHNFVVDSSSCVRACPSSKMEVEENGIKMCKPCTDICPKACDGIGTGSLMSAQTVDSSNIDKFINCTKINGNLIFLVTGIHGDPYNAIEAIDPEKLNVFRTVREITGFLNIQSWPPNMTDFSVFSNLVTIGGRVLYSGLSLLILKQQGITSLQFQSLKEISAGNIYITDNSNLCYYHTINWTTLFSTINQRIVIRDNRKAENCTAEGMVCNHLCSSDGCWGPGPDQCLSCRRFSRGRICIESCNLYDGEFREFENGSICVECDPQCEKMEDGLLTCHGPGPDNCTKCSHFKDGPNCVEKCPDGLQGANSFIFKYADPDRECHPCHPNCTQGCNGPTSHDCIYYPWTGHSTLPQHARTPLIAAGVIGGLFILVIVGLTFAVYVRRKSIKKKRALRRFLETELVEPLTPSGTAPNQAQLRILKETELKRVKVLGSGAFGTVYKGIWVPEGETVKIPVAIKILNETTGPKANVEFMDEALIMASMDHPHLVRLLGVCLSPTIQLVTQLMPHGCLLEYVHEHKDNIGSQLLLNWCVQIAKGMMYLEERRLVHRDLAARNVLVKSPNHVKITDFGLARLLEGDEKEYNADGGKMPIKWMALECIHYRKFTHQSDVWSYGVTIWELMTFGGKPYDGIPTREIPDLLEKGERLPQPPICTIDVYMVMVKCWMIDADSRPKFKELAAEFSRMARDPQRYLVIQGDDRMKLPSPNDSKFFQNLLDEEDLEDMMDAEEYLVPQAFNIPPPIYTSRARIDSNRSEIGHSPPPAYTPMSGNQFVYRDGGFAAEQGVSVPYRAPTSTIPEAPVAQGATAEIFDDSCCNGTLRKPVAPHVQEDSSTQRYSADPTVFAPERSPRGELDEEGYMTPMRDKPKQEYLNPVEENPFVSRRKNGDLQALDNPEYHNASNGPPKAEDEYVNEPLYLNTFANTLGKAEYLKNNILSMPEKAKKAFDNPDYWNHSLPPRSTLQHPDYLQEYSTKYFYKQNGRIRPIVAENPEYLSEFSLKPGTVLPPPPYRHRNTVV
CHEK1, sequence (O14757 whole entry, species assumed): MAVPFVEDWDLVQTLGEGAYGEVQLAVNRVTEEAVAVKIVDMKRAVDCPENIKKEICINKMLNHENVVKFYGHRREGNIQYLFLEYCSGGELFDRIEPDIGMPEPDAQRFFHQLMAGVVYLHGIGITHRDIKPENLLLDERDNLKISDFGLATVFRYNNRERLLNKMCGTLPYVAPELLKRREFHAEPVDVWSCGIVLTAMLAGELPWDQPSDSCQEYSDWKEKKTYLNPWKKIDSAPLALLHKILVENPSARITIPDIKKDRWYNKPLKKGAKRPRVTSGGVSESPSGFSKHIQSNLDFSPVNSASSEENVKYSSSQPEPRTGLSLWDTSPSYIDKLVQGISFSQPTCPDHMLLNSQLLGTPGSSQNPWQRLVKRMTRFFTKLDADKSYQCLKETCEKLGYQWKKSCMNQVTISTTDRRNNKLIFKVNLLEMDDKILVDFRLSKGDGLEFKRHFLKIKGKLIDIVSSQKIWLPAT
ROS1 (G2032R), sequence (P08922 28-2347 G2032R): as the sequence (P08922 28-2347 G2101C) above, with G2005R, C2074G counted along it

On to `COc1cc(N2CCC(N3CCN(CC4CCN(c5ccc6c(c5)CN(C5CCC(=O)NC5=O)C6=O)CC4)CC3)CC2)ccc1Nc1ncc(Cl)c(Nc2ccccc2P(C)(C)=O)n1` (centres unmarked) [9o, 3-(5-(4-((4-(1-(4-((5-Chloro-4-((2-(dimethylphosphoryl)phenyl)amino)pyrimidin-2-yl)amino)-3-methoxyphenyl)piperidin-4-yl)piperazin-1-yl)methyl)piperidin-1-yl)-1-oxoisoindolin-2-yl)piperidine-2,6-dione], for which the “AUC (iv)” value in [1] was found to be 1736 ng·h/mL. Also, the “Dmax (%) (ROS1)” value with ROS1 [2] was found to be 99%. For the same compound, the IC50 came out at 0.027 µM against ERBB4/HER4; 0.161 µM against ROS1 (G2032R); 0.04 µM against CHEK1; 0.0024 µM at FAK/PTK2; 0.039 µM on CAMK2D; 0.083 µM against ROS1 (G2101C). The IC50 against ALK is 0.0009 µM; at INSRR, 0.045 µM; at ROS1 (L2086F), 0.218 µM; at ROS1 [6], 0.0008 µM; at FES it was < 0.01 µM and 0.0075 µM. Besides, the “kinases significantly degraded (proteomics, degrader-treated vs brigatinib-treated)” value with H2228 cells is recorded as “only three kinases were significantly degraded”. Further, the “TGI (tumor growth inhibition)” value came to 62% in [3] (10 mg/kg PO qd), 164% in [3] (30 mg/kg PO qd), 33% in data set [4] (10 mg/kg PO qd) and 78% in data set [4] (30 mg/kg PO qd). In [5], this compound displayed a microsomal CLint at 1 h, 0.25 µM of 17.4 µL/min/mg. In addition, the half-life at 1 h, 0.25 µM in data set [5] (read-out: metabolic stability in rat microsomes T1/2) came to 1.33 h.

These data come from PMC11513893, “Discovery of Oral Degraders of the ROS1 Fusion Protein with Potent Activity against Secondary Resistance Mutations” (Journal of Medicinal Chemistry, 2024).
